Measurements published in patent publication US11180474B2 (BRISTOL-MYERS SQUIBB COMPANY, priority 2016, dated 2021).

Molecular target: T1, human TLR9 (Homo sapiens, UniProt Q9NR96)
T1 construct: host or cells: HEK-Blue cells
T1 sequence (Q9NR96 26-1032): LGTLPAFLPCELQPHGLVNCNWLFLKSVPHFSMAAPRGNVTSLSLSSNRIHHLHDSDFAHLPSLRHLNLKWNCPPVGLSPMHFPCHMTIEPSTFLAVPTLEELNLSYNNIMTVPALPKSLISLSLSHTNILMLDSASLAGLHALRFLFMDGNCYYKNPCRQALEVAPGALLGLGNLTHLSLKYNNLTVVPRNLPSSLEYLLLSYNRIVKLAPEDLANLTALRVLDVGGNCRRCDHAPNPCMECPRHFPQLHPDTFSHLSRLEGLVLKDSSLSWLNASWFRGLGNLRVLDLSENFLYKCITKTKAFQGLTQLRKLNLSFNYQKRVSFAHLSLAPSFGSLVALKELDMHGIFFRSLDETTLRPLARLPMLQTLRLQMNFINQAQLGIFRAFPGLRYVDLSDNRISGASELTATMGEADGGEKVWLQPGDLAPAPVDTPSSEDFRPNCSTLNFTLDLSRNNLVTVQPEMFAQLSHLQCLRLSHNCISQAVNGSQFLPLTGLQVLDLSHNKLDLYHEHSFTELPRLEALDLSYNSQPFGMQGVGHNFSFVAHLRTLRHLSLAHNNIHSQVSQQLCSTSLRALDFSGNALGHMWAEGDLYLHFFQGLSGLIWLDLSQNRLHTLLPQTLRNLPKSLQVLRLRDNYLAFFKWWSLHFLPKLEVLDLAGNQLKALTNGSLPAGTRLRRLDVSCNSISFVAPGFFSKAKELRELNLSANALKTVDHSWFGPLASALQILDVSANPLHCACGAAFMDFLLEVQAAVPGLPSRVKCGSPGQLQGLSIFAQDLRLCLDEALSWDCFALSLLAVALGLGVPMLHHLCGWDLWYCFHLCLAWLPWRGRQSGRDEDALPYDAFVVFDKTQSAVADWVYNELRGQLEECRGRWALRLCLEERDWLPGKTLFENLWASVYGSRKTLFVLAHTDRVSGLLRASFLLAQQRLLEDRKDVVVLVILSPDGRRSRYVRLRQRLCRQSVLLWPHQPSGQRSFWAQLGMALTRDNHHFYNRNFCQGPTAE
Assay: TLR9 inhibition reporter assay (HEK-Blue cells, SEAP reporter, ODN2006 stimulation)
Assay type: cell-based
Details: HEK-Blue cells overexpressing human TLR9, ODN2006 5 nM
Method in brief: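 HEK-Blue cells overexpressing human TLR7, TLR8 or TLR9 carry a SEAP reporter driven by NF-κB/AP-1 sites. Compounds (0.05 nM–50 μM) were preincubated 30 min at room temperature, then cells were stimulated with gardiquimod 7.5 μM (TLR7), R848 15.9 μM (TLR8) or ODN2006 5 nM (TLR9) for 22 h at 37 °C.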

IC50 [µM]	SMILES
0.37	COc1ccc(-c2[nH]c3ccc(C4CCN(CC(=O)N5CC[C@@H](N(C)C)C5)CC4)cc3c2CC(F)(F)F)cc1OC [Example 373, (R)-2-(4-(2-(3,4-dimethoxyphenyl)-3-(2,2,2-trifluoroethyl)-1H-indol-5-yl)piperidin-1-yl)-1-(3-(dimethylamino)pyrrolidin-1-yl)ethan-1-one]
39.1	COc1ccc(-c2[nH]c3ccc(C4CCN(C(=O)CS(C)(=O)=O)CC4)cc3c2CC(F)(F)F)cc1OC [Example 347, 1-(4-(2-(3,4-dimethoxyphenyl)-3-(2,2,2-trifluoroethyl)-1H-indol-5-yl)piperidin-1-yl)-2-(methylsulfonyl)ethan-1-one]
≥ 50	CCNC(=O)N1CCC(c2ccc3[nH]c(-c4ccc(OC)c(OC)c4)c(CC(F)(F)F)c3c2)CC1 [Example 356, 4-(2-(3,4-dimethoxyphenyl)-3-(2,2,2-trifluoroethyl)-1H-indol-5-yl)-N-ethylpiperidine-1-carboxamide]
≥ 50	COc1ccc(-c2[nH]c3ccc(C4CCN(CC(=O)NCCS(=O)(=O)O)CC4)cc3c2CC(F)(F)F)cc1OC [Example 386, 2-(2-(4-(2-(3,4-dimethoxyphenyl)-3-(2,2,2-trifluoroethyl)-1H-indol-5-yl)piperidin-1-yl)acetamido)ethane-1-sulfonic acid]
4.5	COc1ccc(-c2[nH]c3ccc(C4CCNCC4F)cc3c2C(C)C)cc1OC (single isomer, unassigned) [Example 321, 2-(3,4-dimethoxyphenyl)-5-(3-fluoropiperidin-4-yl)-3-isopropyl-1H-indole]
5.4	CCN(CC)C(=O)C1CCCN(CC(=O)N2CCC(c3ccc4[nH]c(-c5ccc(OC)c(OC)c5)c(C5CCOCC5)c4c3)CC2)C1 (centres unmarked) [Example 391, 1-(2-(4-(2-(3,4-dimethoxyphenyl)-3-(tetrahydro-2H-pyran-4-yl)-1H-indol-5-yl)piperidin-1-yl)-2-oxoethyl)-N,N-diethylpiperidine-3-carboxamide]
9.11	COc1ccc(-c2[nH]c3ccc(C4CCNCC4F)cc3c2C(C)C)cc1OC (racemic) [Example 319, 2-(3,4-dimethoxyphenyl)-5-(3-fluoropiperidin-4-yl)-3-isopropyl-1H-indole]
3.53	COc1ccc(-c2[nH]c3ccc(C4CCNCC4F)cc3c2C(C)C)cc1OC (single isomer, unassigned) [Example 324, 2-(3,4-dimethoxyphenyl)-5-(3-fluoropiperidin-4-yl)-3-isopropyl-1H-indole]
≥ 50	COc1ccc(-c2[nH]c3ccc(C4CCNCC4(F)F)cc3c2C(C)C)cc1OC (centres unmarked) [Example 325, 5-(3,3-difluoropiperidin-4-yl)-2-(3,4-dimethoxyphenyl)-3-isopropyl-1H-indole]
5.23	COc1ccc(-c2[nH]c3ccc(C4CCN(C(=O)CCCn5ccnc5)CC4)cc3c2CC(F)(F)F)cc1OC [Example 331, 1-(4-(2-(3,4-dimethoxyphenyl)-3-(2,2,2-trifluoroethyl)-1H-indol-5-yl)piperidin-1-yl)-4-(1H-imidazol-1-yl)butan-1-one]
≥ 50	COc1ccc(-c2[nH]c3ccc(C4CCN(C(=O)CCC(F)(F)F)CC4)cc3c2CC(F)(F)F)cc1OC [Example 350, 1-(4-(2-(3,4-dimethoxyphenyl)-3-(2,2,2-trifluoroethyl)-1H-indol-5-yl)piperidin-1-yl)-4,4,4-trifluorobutan-1-one]
0.914	COc1ccc(-c2[nH]c3ccc(C4CCN(C(=O)CCN(C)C)CC4)cc3c2CC(F)(F)F)cc1OC [Example 340, 1-(4-(2-(3,4-dimethoxyphenyl)-3-(2,2,2-trifluoroethyl)-1H-indol-5-yl)piperidin-1-yl)-3-(dimethylamino)propan-1-one]
0.399	COc1ccc(-c2[nH]c3ccc(C4CCN(CC(=O)N(C)C5CCN(C)C5)CC4)cc3c2CC(F)(F)F)cc1OC (centres unmarked) [Example 370, 2-(4-(2-(3,4-dimethoxyphenyl)-3-(2,2,2-trifluoroethyl)-1H-indol-5-yl)piperidin-1-yl)-N-methyl-N-(1-methylpyrrolidin-3-yl)acetamide]
1.8	CCN(CC)C(=O)C1CCCN(CC(=O)N2CCC(c3ccc4[nH]c(-c5ccc(OC)c(OC)c5)c(C5CCOCC5)c4c3)CC2)C1 (centres unmarked) [Example 392, 1-(2-(4-(2-(3,4-dimethoxyphenyl)-3-(tetrahydro-2H-pyran-4-yl)-1H-indol-5-yl)piperidin-1-yl)-2-oxoethyl)-N,N-diethylpiperidine-3-carboxamide]
8.43	COc1ccc(-c2[nH]c3ccc(C4CCN(CC(=O)Nc5cc(C(C)(C)C)[nH]n5)CC4)cc3c2CC(F)(F)F)cc1OC [Example 387, N-(5-(tert-butyl)-1H-pyrazol-3-yl)-2-(4-(2-(3,4-dimethoxyphenyl)-3-(2,2,2-trifluoroethyl)-1H-indol-5-yl)piperidin-1-yl)acetamide]
15.3	COc1ccc(-c2[nH]c3ccc(C4CCN(C(=O)Cc5cccnc5)CC4)cc3c2CC(F)(F)F)cc1OC [Example 335, 1-(4-(2-(3,4-dimethoxyphenyl)-3-(2,2,2-trifluoroethyl)-1H-indol-5-yl)piperidin-1-yl)-2-(pyridin-3-yl)ethan-1-one]
0.335	CCN(CCN(C)C)C(=O)CN1CCC(c2ccc3[nH]c(-c4ccc(OC)c(OC)c4)c(CC(F)(F)F)c3c2)CC1 [Example 372, 2-(4-(2-(3,4-dimethoxyphenyl)-3-(2,2,2-trifluoroethyl)-1H-indol-5-yl)piperidin-1-yl)-N-(2-(dimethylamino)ethyl)-N-ethylacetamide]
1.15	COc1ccc(-c2[nH]c3ccc(C4CCN(CC(=O)N5CCN(C(C)C)CC5)CC4)cc3c2CC(F)(F)F)cc1OC [Example 362, 2-(4-(2-(3,4-dimethoxyphenyl)-3-(2,2,2-trifluoroethyl)-1H-indol-5-yl)piperidin-1-yl)-1-(4-isopropylpiperazin-1-yl)ethan-1-one]
5.82	COc1ccc(-c2[nH]c3ccc(C4CCN(C(=O)CN(C)C)CC4)cc3c2C)cc1OC [Example 402, 1-(4-(2-(3,4-dimethoxyphenyl)-3-methyl-1H-indol-5-yl)piperidin-1-yl)-2-(dimethylamino)ethan-1-one]
≥ 50	COc1ccc(-c2[nH]c3ccc(C4CCN(C(=O)CCn5ccc6ccccc65)CC4)cc3c2CC(F)(F)F)cc1OC [Example 337, 1-(4-(2-(3,4-dimethoxyphenyl)-3-(2,2,2-trifluoroethyl)-1H-indol-5-yl)piperidin-1-yl)-3-(1H-indol-1-yl)propan-1-one]
≥ 50	COc1ccc(-c2[nH]c3ccc(C4CCNC(=O)C4)cc3c2C(C)C)cc1OC (centres unmarked) [Example 326, 4-(2-(3,4-dimethoxyphenyl)-3-isopropyl-1H-indol-5-yl)piperidin-2-one]
0.745	COc1ccc(-c2[nH]c3ccc(C4CCN(CC(=O)NCCN(C)C)CC4)cc3c2CC(F)(F)F)cc1OC [Example 380, 2-(4-(2-(3,4-dimethoxyphenyl)-3-(2,2,2-trifluoroethyl)-1H-indol-5-yl)piperidin-1-yl)-N-(2-(dimethylamino)ethyl)acetamide]
0.392	COc1ccc(-c2[nH]c3ccc(C4CCN(CC(=O)NCCC5CCCN5C)CC4)cc3c2CC(F)(F)F)cc1OC (centres unmarked) [Example 360, 2-(4-(2-(3,4-dimethoxyphenyl)-3-(2,2,2-trifluoroethyl)-1H-indol-5-yl)piperidin-1-yl)-N-(2-(1-methylpyrrolidin-2-yl)ethyl) acetamide]
≥ 50	COc1ccc(-c2[nH]c3ccc(C4CCN(C(=O)CC(F)(F)F)CC4)cc3c2CC(F)(F)F)cc1OC [Example 339, 1-(4-(2-(3,4-dimethoxyphenyl)-3-(2,2,2-trifluoroethyl)-1H-indol-5-yl)piperidin-1-yl)-3,3,3-trifluoropropan-1-one]
2.79	COc1ccc(-c2[nH]c3ccc(C4CCNCC4F)cc3c2C(C)C)cc1OC (single isomer, unassigned) [Example 322, 2-(3,4-dimethoxyphenyl)-5-(3-fluoropiperidin-4-yl)-3-isopropyl-1H-indole]
0.288	COc1ccc(-c2[nH]c3ccc(C4CCN(CC(=O)NCCCCN5CCCC5)CC4)cc3c2CC(F)(F)F)cc1OC [Example 388, 2-(4-(2-(3,4-dimethoxyphenyl)-3-(2,2,2-trifluoroethyl)-1H-indol-5-yl)piperidin-1-yl)-N-(4-(pyrrolidin-1-yl)butyl)acetamide]
